In patent US20120207733A1 (priority 2011, published 2012):

Test system: DU-145 cells
Format: cell-based, Human

C=C1[C@@H](C)[C@H]2[C@H](Cc3ccccc3)NC(=O)[C@]23[C@H](OC(C)=O)/C=C/[C@@](C)(O)C(=O)[C@@H](C)C/C=C/[C@H]3[C@@H]1O [Cytochalasin-D]
Effect on cell migration: did not migrate
Relative Wound Density at 24 Hours, Mean: 3.3 ± 0.2
Relative Wound Density at 24 Hours, Percent Relative to Media: 4%
